# Measured values from US10633419B2, “Immunomodulators” (BRISTOL-MYERS SQUIBB COMPANY, priority 2014, dated 2020).
# pIC50: −log10 of the molar value. Starred links: 1 amine or outer side, 2 acyl side, 3 side chain; linkers in the order of their positions; H or OH if unused. Positions of bridges follow the written chain, without caps; N, C: chain ends. Non-standard residues stand in square brackets, D forms with d. Residues, ends and D or L forms follow the SMILES beside them. Groups on a side chain read outwards from the residue. *: point of attachment. Succinyl(O-RRR-αToc) = Cc1c(C)c2c(c(C)c1OC(=O)CCC(=O)*)CC[C@@](C)(CCC[C@H](C)CCC[C@H](C)CCCC(C)C)O2; X7 = CCCCCCCCCCCCCCCCNC(=O)[C@H](CC(=O)O)NC(=O)CCC(=O)NCCCOCCOCCOCCCN*; X13 = O=C(O)CCCCCCCCCCCCCCC(=O)N[C@@H](CCC(=O)NCCCOCCOCCOCCCN*)C(=O)O; Trp(1-CH2COOH) = N[C@@H](Cc1cn(CC(=O)O)c2ccccc12)C(=O)O; X21 = O=C([C@H](CC1=CC(CCCCCN[*:3])N=N1)N[*:1])[*:2]; X14 = O=C(O)CCCCCCCCCCNC(=O)CCC(=O)NCCCOCCOCCOCCCN*; Phe(3,4,5-F3) = N[C@@H](Cc1cc(F)c(F)c(F)c1)C(=O)O; γGlu = O=C(O)[C@H](CCC(=O)[*:2])N[*:1]; d(cisHyp) = O=C(O)[C@H]1C[C@@H](O)CN1; PEG6 = NCCOCCOCCOCCOCCOCCOCCC(=O)O; Palmitoyl = CCCCCCCCCCCCCCCC(=O)*; Hyp = O=C(O)[C@@H]1C[C@@H](O)CN1; NMeF = CN[C@@H](Cc1ccccc1)C(=O)O; Myristoyl = CCCCCCCCCCCCCC(=O)*; NMeNle = CCCC[C@H](NC)C(=O)O; dPip = O=C(O)[C@H]1CCCCN1; NMeA = CN[C@@H](C)C(=O)O; Pra = C#CC[C@H](N)C(=O)O; Dab = NCC[C@H](N)C(=O)O; Dap = NC[C@H](N)C(=O)O
# Target: T1, PD-L1 (Homo sapiens, UniProt Q9NZQ7)
# T1 construct: hPDL1(19-239)-TVMV-His; made in house; host or cells: HEK293T
# T1 sequence (Q9NZQ7 with tags, fused parts or gaps): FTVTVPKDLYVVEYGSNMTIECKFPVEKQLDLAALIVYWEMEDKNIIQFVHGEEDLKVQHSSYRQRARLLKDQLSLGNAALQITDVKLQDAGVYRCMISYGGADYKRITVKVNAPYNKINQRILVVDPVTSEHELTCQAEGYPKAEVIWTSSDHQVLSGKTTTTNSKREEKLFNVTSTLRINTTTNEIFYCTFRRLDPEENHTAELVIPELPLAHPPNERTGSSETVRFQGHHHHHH
# Test: PD-1/PD-L1 Homogenous Time-Resolved Fluorescence (HTRF) binding assay (PD-1-Ig/PD-L1-His)
# Details: not given
# Method in brief: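 Inhibitors pre-incubated 15 min with PD-L1-His (10 nM final), then PD-1-Ig (20 nM final) added for 15 min in dPBS/0.1% BSA/0.05% Tween-20. Eu-cryptate anti-Ig (1 nM) and APC anti-His (20 nM) added, 30 min equilibration, 665/620 nm HTRF ratio read.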
row,SMILES,pIC50
1,CCCC[C@H]1C(=O)N(C)[C@@H](CCCC)C(=O)N[C@@H](CCC(=O)O)C(=O)N[C@H](C(=O)NCC(=O)N[C@@H](CC2=CC(CCCCCNC(=O)CCC(=O)Oc3c(C)c(C)c4c(c3C)CC[C@@](C)(CCC[C@H](C)CCC[C@H](C)CCCC(C)C)O4)N=N2)C(=O)NCC(N)=O)CSCC(=O)N[C@@H](Cc2ccc(O)cc2)C(=O)N(C)[C@@H](C)C(=O)N[C@@H](CC(=O)O)C(=O)N2CCC[C@H]2C(=O)N[C@@H](Cc2c[nH]cn2)C(=O)N[C@@H](CCCCN)C(=O)N2C[C@H](O)C[C@H]2C(=O)N[C@@H](Cc2c[nH]c3ccccc23)C(=O)N[C@@H](CCCCN)C(=O)N[C@@H](Cc2c[nH]c3ccccc23)C(=O)N1C (stereo partly drawn) [Example 14051] ({CH2CO}-Y[NMeA]DPHK[Hyp]WKW[NMeNle][NMeNle]ECG[X21](Succinyl(O-RRR-αToc))G-NH2; thioether N-14),5.80 to 7.00

# Same assay, conditions: inhibition of PD-1-Ig binding to PD-L1-TVMV-His; value given as range class; read-out: HTRF IC50
row,SMILES,pIC50
1,C#CC[C@H](NC(=O)CNC(=O)[C@@H]1CSCC(=O)N[C@@H](Cc2ccc(O)cc2)C(=O)N(C)[C@@H](C)C(=O)N[C@@H](CC(N)=O)C(=O)N2CCC[C@H]2C(=O)N[C@@H](CN)C(=O)N[C@@H](CC(C)C)C(=O)N2C[C@H](O)C[C@H]2C(=O)N[C@@H](Cc2c[nH]c3ccccc23)C(=O)N[C@@H](CCN)C(=O)N[C@@H](Cc2cn(CC(=O)O)c3ccccc23)C(=O)N(C)[C@@H](CCCC)C(=O)N(C)[C@@H](CCCC)C(=O)N[C@@H](CC(C)C)C(=O)N1)C(=O)O [INT 1300V] ({CH2CO}-Y[NMeA]NP[Dap]L[Hyp]W[Dab][Trp(1-CH2COOH)][NMeNle][NMeNle]LCG[Pra]-OH; thioether N-14),7.00 to 8.00
2,CCCCCCCCCCCCCC(=O)N[C@@H](CCC(=O)NCCCC[C@H](NC(=O)CNC(=O)CNC(=O)CNC(=O)CNC(=O)[C@@H]1CSCC(=O)N[C@@H](Cc2ccc(O)cc2)C(=O)N(C)[C@@H](C)C(=O)N[C@@H](CC(N)=O)C(=O)N2CCC[C@H]2C(=O)N[C@@H](Cc2cnc[nH]2)C(=O)N[C@@H](CC(C)C)C(=O)N2C[C@H](O)C[C@H]2C(=O)N[C@@H](Cc2c[nH]c3ccccc23)C(=O)N[C@@H](CO)C(=O)N[C@@H](Cc2c[nH]c3ccccc23)C(=O)N(C)[C@@H](CCCC)C(=O)N(C)[C@@H](CCCC)C(=O)N[C@@H](CCCNC(=N)N)C(=O)N1)C(N)=O)C(=O)O [Example 11114] ({CH2CO}-Y[NMeA]NPHL[Hyp]WSW[NMeNle][NMeNle]RCGGGGK([γGlu-Myristoyl])-NH2; thioether N-14),5.80 to 7.00
3,CCCCCCCCCCCCCCCC(=O)NCCCC[C@H](NC(=O)[C@H](CC(=O)O)NC(=O)CNC(=O)[C@@H]1CSCC(=O)N[C@@H](Cc2ccc(O)cc2)C(=O)N(C)[C@@H](C)C(=O)N[C@@H](CC(N)=O)C(=O)N2CCC[C@H]2C(=O)N[C@@H](CCN)C(=O)N[C@@H](CC(C)C)C(=O)N2C[C@H](O)C[C@H]2C(=O)N[C@@H](Cc2c[nH]c3ccccc23)C(=O)N[C@@H](CO)C(=O)N[C@@H](Cc2c[nH]c3ccccc23)C(=O)N(C)[C@@H](CCCC)C(=O)N(C)[C@@H](CCCC)C(=O)N[C@@H](CCCNC(=N)N)C(=O)N1)C(N)=O [Example 11027] ({CH2CO}-Y[NMeA]NP[Dab]L[Hyp]WSW[NMeNle][NMeNle]RCGDK(Palmitoyl)-NH2; thioether N-14),5.80 to 7.00
4,CCCC[C@H]1C(=O)N(C)[C@@H](CCCC)C(=O)N[C@@H](CC(C)C)C(=O)N[C@H](C(=O)NCCOCCOCCOCCOCCOCCOCCC(=O)O)CSCC(=O)N[C@@H](Cc2ccc(O)cc2)C(=O)N(C)[C@@H](C)C(=O)N[C@@H](CC(N)=O)C(=O)N2CCC[C@H]2C(=O)N[C@@H](Cc2cnc[nH]2)C(=O)N[C@@H](CCC(=O)O)C(=O)N2C[C@H](O)C[C@@H]2C(=O)N[C@@H](Cc2c[nH]c3ccccc23)C(=O)N[C@@H](CCN)C(=O)N[C@@H](Cc2cn(CC(=O)O)c3ccccc23)C(=O)N1C [Example 11044] ({CH2CO}-Y[NMeA]NPHE[d(cisHyp)]W[Dab][Trp(1-CH2COOH)][NMeNle][NMeNle]LC[PEG6]-OH; thioether N-14),7.00 to 8.00
5,"CCCC[C@H]1C(=O)N2C[C@H](O)C[C@@H]2C(=O)N[C@@H](CC(=O)O)C(=O)N[C@@H](C(C)C)C(=O)N(C)[C@@H](Cc2ccccc2)C(=O)N[C@@H](Cc2ccc(O)cc2)C(=O)N2CCCC[C@@H]2C(=O)N[C@@H](Cc2c[nH]c3ccccc23)C(=O)N[C@@H](Cc2ccc(O)cc2)C(=O)N[C@@H](CC(C)C)C(=O)N[C@H](C(=O)NCC(=O)NCC(=O)NCC(=O)N[C@@H](CCCCN)C(N)=O)CSCC(=O)N[C@@H](Cc2cc(F)c(F)c(F)c2)C(=O)N(C)[C@@H](Cc2ccccc2)C(=O)N1C [Example 3623] ({CH2CO}-[Phe(3,4,5-F3)][NMeF][NMeNle][d(cisHyp)]DV[NMeF]Y[dPip]WYLCGGGK-NH2; thioether N-13)",8.00 to 9.52

# The remaining lines, values ahead:
row,pIC50,SMILES
1,8.00 to 9.52,CCCC[C@H]1C(=O)N(C)[C@@H](CCCC)C(=O)N[C@@H](CC(C)C)C(=O)N[C@H](C(=O)NCC(=O)NCCCOCCOCCOCCCNC(=O)CC[C@H](NC(=O)CCCCCCCCCCCCCCC(=O)O)C(=O)O)CSCC(=O)N[C@@H](Cc2ccc(O)cc2)C(=O)N(C)[C@@H](C)C(=O)N[C@@H](CC(N)=O)C(=O)N2CCC[C@@H]2C(=O)N[C@@H](CN)C(=O)N[C@@H](CC(C)C)C(=O)N2C[C@H](O)C[C@@H]2C(=O)N[C@@H](Cc2c[nH]c3ccccc23)C(=O)N[C@@H](CCN)C(=O)N[C@@H](Cc2cn(CC(=O)O)c3ccccc23)C(=O)N1C [Example 11168] ({CH2CO}-Y[NMeA]N[dP][Dap]L[d(cisHyp)]W[Dab][Trp(1-CH2COOH)][NMeNle][NMeNle]LCG-X13; thioether N-14)
2,7.00 to 8.00,CCCCCCCCCCCCCCCCNC(=O)[C@H](CC(=O)O)NC(=O)CCC(=O)NCCCOCCOCCOCCCNC(=O)CNC(=O)[C@@H]1CSCC(=O)N[C@@H](Cc2ccc(O)cc2)C(=O)N(C)[C@@H](C)C(=O)N[C@@H](CC(=O)O)C(=O)N2CCC[C@H]2C(=O)N[C@@H](Cc2cnc[nH]2)C(=O)N[C@@H](CC(C)C)C(=O)N2C[C@H](O)C[C@H]2C(=O)N[C@@H](Cc2c[nH]c3ccccc23)C(=O)N[C@@H](CO)C(=O)N[C@@H](Cc2c[nH]c3ccccc23)C(=O)N(C)[C@@H](CCCC)C(=O)N(C)[C@@H](CCCC)C(=O)N[C@@H](CCCNC(=N)N)C(=O)N1 [Example 11128] ({CH2CO}-Y[NMeA]DPHL[Hyp]WSW[NMeNle][NMeNle]RCG-X7; thioether N-14)
3,7.00 to 8.00,CCCC[C@H]1C(=O)N(C)[C@@H](CCCC)C(=O)N[C@@H](CC(C)C)C(=O)N[C@H](C(=O)NCCCOCCOCCOCCCNC(=O)CCC(=O)NCCCCCCCCCCC(=O)O)CSCC(=O)N[C@@H](Cc2ccc(O)cc2)C(=O)N(C)[C@@H](C)C(=O)N[C@@H](CC(N)=O)C(=O)N2CCC[C@H]2C(=O)N[C@@H](CO)C(=O)N[C@@H](CCC(N)=O)C(=O)N2C[C@H](O)C[C@H]2C(=O)N[C@@H](Cc2c[nH]c3ccccc23)C(=O)N[C@@H](CO)C(=O)N[C@@H](Cc2cn(CC(=O)O)c3ccccc23)C(=O)N1C [Example 11083] ({CH2CO}-Y[NMeA]NPSQ[Hyp]WS[Trp(1-CH2COOH)][NMeNle][NMeNle]LC-X14; thioether N-14)
